{"source": "paper PMC8134483", "about": "(Scientific Reports, 2021)", "key": {"hCB2R [1]": {"biological_target": "T1, hCB2R (Homo sapiens, UniProt P34972)", "T1 construct": "host or cells: CHO-K1 (PathHunter)", "T1 sequence (P34972 whole entry)": "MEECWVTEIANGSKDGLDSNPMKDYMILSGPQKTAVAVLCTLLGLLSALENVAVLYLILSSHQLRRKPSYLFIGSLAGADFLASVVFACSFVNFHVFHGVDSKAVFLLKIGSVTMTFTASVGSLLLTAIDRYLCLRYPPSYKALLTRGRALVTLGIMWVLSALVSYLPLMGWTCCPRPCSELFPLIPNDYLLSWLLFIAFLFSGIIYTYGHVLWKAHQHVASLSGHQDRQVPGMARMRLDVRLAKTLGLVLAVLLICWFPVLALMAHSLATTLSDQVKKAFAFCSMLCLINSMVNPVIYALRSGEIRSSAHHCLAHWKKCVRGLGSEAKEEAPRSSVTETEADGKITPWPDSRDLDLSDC", "experiment": "PathHunter βarrestin2 recruitment, CB2R", "type": "cell-based", "settings": "for βarrestin2 recruitment to CB2R, activity in words: relative to CP55,940"}, "hCB1R [2]": {"biological_target": "T2, hCB1R (Homo sapiens, UniProt P21554)", "T2 construct": "expressed in transfected cells; host or cells: CHO-K1", "T2 sequence (P21554 whole entry)": "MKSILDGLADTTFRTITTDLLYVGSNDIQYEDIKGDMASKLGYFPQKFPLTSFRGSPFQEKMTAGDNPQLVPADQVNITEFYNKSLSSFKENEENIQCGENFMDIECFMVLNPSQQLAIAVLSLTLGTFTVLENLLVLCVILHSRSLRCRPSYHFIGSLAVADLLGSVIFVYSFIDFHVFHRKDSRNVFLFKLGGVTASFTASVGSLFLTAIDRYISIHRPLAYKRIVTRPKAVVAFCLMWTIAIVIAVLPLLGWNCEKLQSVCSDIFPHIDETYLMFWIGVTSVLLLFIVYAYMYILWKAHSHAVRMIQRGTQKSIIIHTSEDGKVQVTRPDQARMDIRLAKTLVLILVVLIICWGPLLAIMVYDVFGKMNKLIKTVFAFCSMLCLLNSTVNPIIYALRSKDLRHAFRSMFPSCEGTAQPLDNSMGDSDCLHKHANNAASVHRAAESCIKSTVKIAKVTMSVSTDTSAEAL", "experiment": "CB1R bias analysis (operational model, cAMP inhibition vs βarrestin2)", "type": "cell-based", "settings": "cAMP inhibition vs βarrestin2", "procedure": "(§1) Estimates of Ki, EC50, Emin, and Emax were determined using non-linear regression with variable slope (four parameters) (GraphPad, Prism, v. 8.0). […] One-way analysis of variance (ANOVA), followed by Tukey’s post-hoc test, was used for statistical analyses (p < 0.05 determined to be significant); and Bartlett’s test was used to confirm homogeneity of variance (GraphPad)."}, "hCB1R [3]": {"biological_target": "T2, hCB1R", "experiment": "biochemical", "type": "binding"}, "male C57Bl/6 mice [4]": {"test_system": "male C57Bl/6 mice", "experiment": "Catalepsy, ring holding assay", "type": "in vivo", "settings": "0.1–10 mg/kg i.p.; 5 min; % MPE 60 s", "procedure": "(§2) Adult male C57BL/6 mice aged 6–10 weeks (mean weight 24 ± 0.5 g) were purchased from Charles River Labs (Senneville, QC). Animals were group housed (three per cage) with ad libitum access to food, water, and environmental enrichment and maintained on a 12 h light/dark cycle. Mice were randomly assigned to receive i.p. injections of vehicle (1:1:18 ethanol:emulphor:saline) or 0.1–10 mg/kg SCRA (n ≥ 4 per group). All protocols have been described previously and were in accordance with the guidelines detailed by the Canadian Council on Animal Care and approved by the Animal Research Ethics Board and the Scientific Merit Review Committee for Animal Behaviour at the University of Saskatchewan. […]\n(§3) Modified tetrad testing (catalepsy, body temperature, tail flick assay) was conducted according to previously described methods, which are summarized briefly here. […] Catalepsy was assessed in the ring holding assay 5 min following injection with mouse forepaws clasped to a 5 mm ring positioned 5 cm above the surface of the testing space. The length of time the ring was held was recorded (s) to a maximum time of 60 s (i.e. MPE = 60 s). Internal body temperature was measured 15 min after injection. Anti-nociception was determined by assessing tail flick latency 20 min after injection. […]"}, "hCB1R [5]": {"biological_target": "T2, hCB1R", "experiment": "cell-based", "type": "cell-based"}, "male C57Bl/6 mice [6]": {"test_system": "male C57Bl/6 mice", "experiment": "Anti-nociception, tail flick assay", "type": "in vivo", "settings": "0.1–10 mg/kg i.p.; 20 min; 52 °C; % MPE 20 s", "procedure": "as §2, §3"}, "male C57Bl/6 mice [7]": {"test_system": "male C57Bl/6 mice", "experiment": "Internal body temperature", "type": "in vivo", "settings": "0.1–10 mg/kg i.p.; 15 min", "procedure": "as §2, §3"}, "hCB1R [8]": {"biological_target": "T2, hCB1R", "experiment": "cell-based", "type": "cell-based", "remark": "listed apart in the source"}, "hCB2R [9]": {"biological_target": "T1, hCB2R", "experiment": "CB2R bias analysis (operational model, cAMP inhibition vs βarrestin2)", "type": "cell-based", "settings": "CP55,940 as reference agonist; >0 cAMP bias, <0 βarrestin2 bias", "procedure": "as §1"}, "male C57Bl/6 mice [10]": {"test_system": "male C57Bl/6 mice", "experiment": "Elevated plus maze (EPM)", "type": "in vivo", "settings": "1.0 mg/kg i.p., 30 min after treatment, 5 min trial", "procedure": "Adult male C57BL/6 mice aged 6–10 weeks (mean weight 24 ± 0.5 g) were purchased from Charles River Labs (Senneville, QC). Animals were group housed (three per cage) with ad libitum access to food, water, and environmental enrichment and maintained on a 12 h light/dark cycle. Mice were randomly assigned to receive i.p. injections of vehicle (1:1:18 ethanol:emulphor:saline) or 0.1–10 mg/kg SCRA (n ≥ 4 per group). All protocols have been described previously and were in accordance with the guidelines detailed by the Canadian Council on Animal Care and approved by the Animal Research Ethics Board and the Scientific Merit Review Committee for Animal Behaviour at the University of Saskatchewan. The following steps were taken to ensure our study was in keeping with the ARRIVE guidelines: (1) power analyses were conducted to determine the minimum number of animals required for the study; (2) animals were purchased—rather than bred—to limit animal waste; and (3) all assessments of animal behaviour were made by individuals blinded to the treatment group,[57].\nEPM was conducted according to methods adapted from Marks et al.. The EPM was built from a plywood base painted blue with blue corrugated plastic floor and walls. The floor of the maze was composed of perpendicular interlocking arms (110 cm long × 10 cm wide) with two arms having 45 cm walls (closed arms) and two arms having no walls and a 0.5 cm edge (open arms), all elevated 45 cm from the ground. Trials began with the mouse in the central zone facing an open arm. Trials lasted 5 min and began 30 min after SCRA treatment. An arm entry was considered to be all four limbs leaving the central zone. Arm entries and the percent time spent in open versus closed arms were recorded by an observer blinded to the treatment group. Less time in the open arms and more time in the closed arms was used as a model of anxiogenic behaviour."}, "hCB2R [11]": {"biological_target": "T1, hCB2R", "experiment": "[^3H]CP55,940 competition (radioligand displacement) binding to CB2R"}, "hCB2R [12]": {"biological_target": "T1, hCB2R", "experiment": "HitHunter inhibition of FSK-stimulated cAMP, CB2R", "type": "cell-based"}, "[13]": {"settings": "bottom of the concentration–response curve, mean ± SEM"}}, "note": "Read-outs that look alike come from different tables or passages of the source.", "data": [{"smiles": "CC(C)CCn1cc(C(=O)c2ccc3ccccc3c2)c2ccccc21", "note": "[JWH 018 2'-naphthyl-N-(3-methylbutyl) isomer]", "values": [{"measurement": "EC50", "setting": "hCB2R [1]", "value": "> 10000", "unit": "nM"}, {"measurement": "Emax", "setting": "hCB2R [1]", "value": "6.1 ± 1.3", "unit": "%"}, {"measurement": "βarrestin2 recruitment to CB2R, activity in words", "setting": "hCB2R [1]", "value": "Inactive at βarrestin2"}, {"measurement": "βarrestin2 recruitment to CB2R, activity in words", "setting": "hCB2R [1]; listed as JWH 018 2′-napthyl-N-(3-methylbutyl) isomer", "value": "inactive in βarrestin2"}, {"measurement": "Observed CB1R bias in cell culture", "setting": "hCB1R [2]", "value": "G protein"}, {"measurement": "Ki", "setting": "hCB1R [3]", "value": 0.93, "unit": "nM"}, {"measurement": "CB1R versus CB2R selectivity, receptor affinity", "setting": "hCB1R [3]; CB1R vs CB2R [^3H]CP55,940 binding", "value": "greater affinity at CB1R relative to CB2R"}, {"measurement": "CB1R [^3H]CP55,940 Emin", "setting": "hCB1R [3]; [13]", "value": "9.6 ± 2.7", "unit": "%"}, {"measurement": "Catalepsy response", "setting": "male C57Bl/6 mice [4]", "value": "partial agonist"}, {"measurement": "CB1R versus CB2R selectivity, cAMP inhibition potency", "setting": "hCB1R [5]; CB1R vs CB2R", "value": "more potent at CB2R relative to CB1R"}, {"measurement": "EC50", "setting": "hCB1R [5]; CHO hCB1R, 10 µM FSK, 90 min, value with 95% CI, read-out: CB1R cAMP Inhibition EC50", "value": 98, "unit": "nM"}, {"measurement": "Emax", "setting": "hCB1R [5]; read-out: CB1R cAMP Inhibition Emax", "value": "80 ± 9.1", "unit": "%"}, {"measurement": "Anti-nociceptive response, tail flick", "setting": "male C57Bl/6 mice [6]", "value": "full agonist"}, {"measurement": "Body temperature (hypothermia) response", "setting": "male C57Bl/6 mice [7]", "value": "did not change body temperature"}, {"measurement": "EC50", "setting": "hCB1R [8]; CHO hCB1R, 90 min, value with 95% CI, read-out: CB1R βarrestin2 recruitment EC50", "value": "> 10000", "unit": "nM"}, {"measurement": "Emax", "setting": "hCB1R [8]; read-out: CB1R βarrestin2 recruitment Emax", "value": "4.9 ± 0.51", "unit": "%"}, {"measurement": "βarrestin2 recruitment to CB1R, activity in words", "setting": "hCB1R [8]; relative to CP55940", "value": "Inactive at βarrestin2"}, {"measurement": "CB2R bias between cAMP inhibition and βarrestin2 recruitment, ∆∆LogR (cAMP—βarr2), in words", "setting": "hCB2R [9]", "value": "obligate cAMP-biased ligands"}, {"measurement": "EPM open arm entries", "setting": "male C57Bl/6 mice [10]", "value": "increased open arm entry"}, {"measurement": "EPM time in the open arms", "setting": "male C57Bl/6 mice [10]", "value": "greater amount of time spent in the open arms"}, {"measurement": "EPM total arm entries", "setting": "male C57Bl/6 mice [10]; vs vehicle", "value": "did not change total arm entries"}, {"measurement": "Ki", "setting": "hCB2R [11]", "value": 7.5, "unit": "nM"}, {"measurement": "CB2R [^3H]CP55,940 Emin", "setting": "hCB2R [11]; [13]", "value": "54 ± 3.5", "unit": "%"}, {"measurement": "EC50", "setting": "hCB2R [12]", "value": 0.52, "unit": "nM"}, {"measurement": "Emax", "setting": "hCB2R [12]", "value": "110 ± 9.2", "unit": "%"}]}]}
